In PubChem BioAssay AID330 (DTP/NCI, 2004):
“And” between values parts separate entries of the source, which are not always exact repeats. Identical values can stand only once. Inconclusive results and toxic doses are left out.

Test system: P388 leukemia ip, CD2F1 mice, survival T/C
Test: NCI In Vivo Anticancer Drug Screen. Data for tumor model P388 Leukemia (intraperitoneal) in CD2F1 (CDF1) mice
Details: endpoint: median survival time, higher = longer survival
In short: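 Mice carrying the transplanted tumor received test compound or vehicle. Survival was recorded in each group, and the value is the treated-group measurement divided by that of the vehicle-treated control group.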

[1] = dose: 50.0 mg/kg/injection, schedule: Q01DX009 (ip), vehicle: saline with Tween-80
[2] = dose: 100.0 mg/kg/injection, schedule: Q01DX009 (ip), vehicle: saline with Tween-80
[3] = dose: 200.0 mg/kg/injection, schedule: Q01DX009 (ip), vehicle: saline with Tween-80
[4] = dose: 50.0 mg/kg/injection, schedule: Q01DX005 (ip), vehicle: Klucel (hydroxypropylcellulose) (HPC)
[5] = dose: 100.0 mg/kg/injection, schedule: Q01DX005 (ip), vehicle: Klucel (hydroxypropylcellulose) (HPC)

CCCCCCCC(=O)NC1CC(O[C@H]2C[C@](O)(C(=O)CO)Cc3c(O)c4c(c(O)c32)C(=O)c2c(OC)cccc2C4=O)OC(C)C1O (some centres not stated)
T/C (dose: 6.25 mg/kg/injection, schedule: Q01DX009 (ip), vehicle: other): 153 % of control
T/C (dose: 12.5 mg/kg/injection, schedule: Q01DX009 (ip), vehicle: other): 177 % of control
T/C (dose: 25.0 mg/kg/injection, schedule: Q01DX009 (ip), vehicle: other): 184 % of control
T/C (dose: 50.0 mg/kg/injection, schedule: Q01DX009 (ip), vehicle: other): 155 % of control
T/C (dose: 100.0 mg/kg/injection, schedule: Q01DX009 (ip), vehicle: other): 86 % of control

[Br][Sn]([Br])([CH2][Sn]([Br])([c]1ccccc1)[c]1ccccc1)[c]1ccccc1
T/C (dose: 12.5 mg/kg/injection, schedule: Q01DX005 (ip), vehicle: Klucel (hydroxypropylcellulose) (HPC)): 124 % of control

CC(CC(=O)O)C(C(=O)O)C(=O)O (configuration not stated)
T/C (dose: 50.0 mg/kg/injection, schedule: Q01DX005 (ip), vehicle: saline): 104 % of control
T/C (dose: 100.0 mg/kg/injection, schedule: Q01DX005 (ip), vehicle: saline): 101 % of control

CN(C)c1ccc(N=C2C(c3ccccc3)=[N+]([O-])c3ccccc32)cc1
T/C (dose: 60.0 mg/kg/injection, schedule: Q01DX005 (ip), vehicle: saline with Tween-80): 93 % of control
T/C (dose: 120.0 mg/kg/injection, schedule: Q01DX005 (ip), vehicle: saline with Tween-80): 93 % of control
T/C (dose: 240.0 mg/kg/injection, schedule: Q01DX005 (ip), vehicle: saline with Tween-80): 100 % of control

O=C(O)C(=O)O.O=C([O-])C(=O)O.O=C([O-])C(=O)O.O=C([O-])C(=O)[O-].[K+].[U]
T/C (dose: 1.56 mg/kg/injection, schedule: Q01DX009 (ip), vehicle: saline): 100 % of control
T/C (dose: 3.13 mg/kg/injection, schedule: Q01DX009 (ip), vehicle: saline): 100 % of control

Cc1cccn2c(CCCc3nnc4c(C)cccn34)nnc12
T/C [1]: 100 % of control
T/C [2]: 101 % of control
T/C [3]: 101 % of control

CC1(C)OC(=O)C(Cc2ccco2)C(=O)O1
T/C (dose: 100.0 mg/kg/injection, schedule: Q04DX002 (ip), vehicle: saline with Tween-80): 97 % of control
T/C (dose: 200.0 mg/kg/injection, schedule: Q04DX002 (ip), vehicle: saline with Tween-80): 106 % of control
T/C (dose: 400.0 mg/kg/injection, schedule: Q04DX002 (ip), vehicle: saline with Tween-80): 101 % of control

CCc1nc(N)nc(N)c1-c1ccc(NCCc2ccccc2)c([N+](=O)[O-])c1
T/C [4]: 101 % of control
T/C [5]: 113 % of control and 124 % of control
T/C (dose: 200.0 mg/kg/injection, schedule: Q01DX005 (ip), vehicle: Klucel (hydroxypropylcellulose) (HPC)): 162 % of control
T/C (dose: 400.0 mg/kg/injection, schedule: Q01DX005 (ip), vehicle: Klucel (hydroxypropylcellulose) (HPC)): 98 % of control

COc1ccc2sc3c(C)ccc(NCCN(C)C)c3c(=O)c2c1
T/C [1]: 115 % of control

CCOC(=O)C[n+]1ccc2cc(OC)c(OC)cc2c1Cc1ccc(OC)c(OC)c1
T/C [1]: 102 % of control
T/C [2]: 90 % of control
T/C [3]: 90 % of control

O=c1[nH]cnc(O)c1C1C=CC=CC=C1
T/C [4]: 105 % of control
T/C [5]: 114 % of control

O=C1CSC(c2cccc(F)c2)N1CCN1C(=O)CSC1c1cccc(F)c1 (configuration not stated)
T/C (dose: 50.0 mg/kg/injection, schedule: Q01DX005 (ip), vehicle: saline with Tween-80): 95 % of control
T/C (dose: 100.0 mg/kg/injection, schedule: Q01DX005 (ip), vehicle: saline with Tween-80): 98 % of control
T/C (dose: 200.0 mg/kg/injection, schedule: Q01DX005 (ip), vehicle: saline with Tween-80): 106 % of control

CCOC(=O)C(C(=O)OCC)c1nc[nH]c1[N+](=O)[O-]
T/C (dose: 25.0 mg/kg/injection, schedule: Q04DX003 (ip), vehicle: saline with Tween-80): 108 % of control
T/C (dose: 50.0 mg/kg/injection, schedule: Q04DX003 (ip), vehicle: saline with Tween-80): 104 % of control
T/C (dose: 100.0 mg/kg/injection, schedule: Q04DX003 (ip), vehicle: saline with Tween-80): 100 % of control and 97 % of control

CC(=O)O[C@H]1C2c3c(ccc4c(=O)cc(-c5ccccc5)oc34)OC2OC1(C)C (some centres not stated)
T/C (dose: 0.4 mg/kg/injection, schedule: Q01DX005 (ip), vehicle: Klucel (hydroxypropylcellulose) (HPC)): 97 % of control
T/C (dose: 0.8 mg/kg/injection, schedule: Q01DX005 (ip), vehicle: Klucel (hydroxypropylcellulose) (HPC)): 92 % of control
T/C (dose: 1.6 mg/kg/injection, schedule: Q01DX005 (ip), vehicle: Klucel (hydroxypropylcellulose) (HPC)): 97 % of control
T/C (dose: 3.2 mg/kg/injection, schedule: Q01DX005 (ip), vehicle: Klucel (hydroxypropylcellulose) (HPC)): 98 % of control

C1C[O][Ge]2([O]1)[O]CC[O]2
T/C (dose: 50.0 mg/kg/injection, schedule: Q01DX009 (ip), vehicle: saline): 108 % of control
T/C (dose: 100.0 mg/kg/injection, schedule: Q01DX009 (ip), vehicle: saline): 101 % of control
T/C (dose: 200.0 mg/kg/injection, schedule: Q01DX009 (ip), vehicle: saline): 102 % of control
